Experiments:
Test in all cases: HDAC enzyme inhibition assay
Assay type in all cases: biochemical
HDAC6 = molecular target: T1, HDAC6 (Homo sapiens, UniProt Q9UBN7); parameters: purchased BPS Bioscience 50006
T1 sequence (Q9UBN7 1-1215): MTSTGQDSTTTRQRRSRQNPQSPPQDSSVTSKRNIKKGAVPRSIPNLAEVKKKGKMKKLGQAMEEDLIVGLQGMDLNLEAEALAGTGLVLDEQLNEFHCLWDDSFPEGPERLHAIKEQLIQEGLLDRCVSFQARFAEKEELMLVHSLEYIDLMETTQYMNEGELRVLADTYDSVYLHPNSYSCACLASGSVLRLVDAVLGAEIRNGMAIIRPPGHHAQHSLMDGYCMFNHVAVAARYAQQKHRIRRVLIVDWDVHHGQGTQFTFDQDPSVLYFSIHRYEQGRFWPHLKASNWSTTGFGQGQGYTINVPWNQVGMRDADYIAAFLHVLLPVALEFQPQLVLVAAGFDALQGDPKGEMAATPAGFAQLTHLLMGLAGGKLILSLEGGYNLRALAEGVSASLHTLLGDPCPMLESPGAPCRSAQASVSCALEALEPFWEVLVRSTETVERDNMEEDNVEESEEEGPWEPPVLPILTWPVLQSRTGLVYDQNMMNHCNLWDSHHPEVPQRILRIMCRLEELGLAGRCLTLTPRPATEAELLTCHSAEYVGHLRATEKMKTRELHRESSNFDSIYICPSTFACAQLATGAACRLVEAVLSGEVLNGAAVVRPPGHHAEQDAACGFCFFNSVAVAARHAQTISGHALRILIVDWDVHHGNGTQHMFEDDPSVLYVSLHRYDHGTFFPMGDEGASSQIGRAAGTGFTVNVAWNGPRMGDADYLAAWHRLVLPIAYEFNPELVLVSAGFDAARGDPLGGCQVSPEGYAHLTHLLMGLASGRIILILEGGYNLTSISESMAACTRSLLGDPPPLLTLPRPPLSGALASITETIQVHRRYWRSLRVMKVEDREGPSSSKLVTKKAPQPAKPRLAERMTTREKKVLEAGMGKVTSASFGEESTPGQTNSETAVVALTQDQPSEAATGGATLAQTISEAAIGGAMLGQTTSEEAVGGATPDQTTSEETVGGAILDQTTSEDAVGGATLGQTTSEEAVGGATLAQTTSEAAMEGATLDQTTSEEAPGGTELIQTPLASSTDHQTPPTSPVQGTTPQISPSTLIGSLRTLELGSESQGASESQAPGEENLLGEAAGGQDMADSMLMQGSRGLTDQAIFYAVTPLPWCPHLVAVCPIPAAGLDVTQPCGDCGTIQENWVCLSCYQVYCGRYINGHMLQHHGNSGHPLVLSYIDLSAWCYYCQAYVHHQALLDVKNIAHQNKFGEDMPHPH
Procedure: (§1) Bio-Rad) to Immobilon-FL PVDF membranes (Catalog# IPFL00005, Mill ipore Merck, Burlington, MA, USA) at 1.0 A for 30 min and treated with 5% milk-powder solution for 1 h at room temperature […]
(§2) Signaling Technology) antibody solutions in 1:1000 –1:8000 dilutions at 4 °C overnight. […]
(§3) Significance testing was performed with a one -way analysis of variance (ANOVA). Dunnett’s post -hoc test was employed to obtain significance levels of each mean compared to a reference mean value.
(§4) 2.7. HDAC Enzyme Inhibition Assay […]
(§5) [4] For test compounds and controls, serial dilutions of the respective DMSO stock solution in DMSO were prepared, and 1.0 μL /well of this serial dilution were transferred […]
(§6) into OptiPlate-96 black microplates (PerkinElmer, Waltham, […], USA). A volume of 4 µL/well assay […]
(§7) BSA) was added. In the case of HDAC1, 2, and 6, a volume of 35 μL/well of the fluorogenic substrate […]
(§8) The total assay volume of 50 μL (max. 2 % DMSO) was incubated at 37 °C for 90 min. Subsequently, 50 μL /well of trypsin (0.4 mg/mL) in trypsin buffer (50 mM Tris−HCl, pH 8.0, 100 mM NaCl) was added, followed by additional 30 min of incubation at […]
(§9) OPTIMA microplate reader (BMG labtech, Ortenburg, Germany). The half maximal inhibitory concentration (IC50) was determined by plotting dose response curves and nonlinear regression with GraphPad Prism (GraphPad Software).
(§10) 2.8. MTT Cell Viability Assay […]

HDAC2 = HDAC2 (Homo sapiens, UniProt Q92769); parameters: purchased BPS Bioscience 50052
Procedure: as §1, §2, §3, §4, §5, §6, §7, §8, §9, §10

HDAC4 = HDAC4 (Homo sapiens, UniProt P56524); parameters: purchased BPS Bioscience 50004
Procedure: as §1, §2
Significance testing was performed with a one -way analysis […]
compared to a reference mean value.
as §4
In vitro inhibitory activities against HDAC4 were measured using a previously published protocol with slight modifications. For test compounds and controls, serial dilutions of the respective DMSO stock solution in DMSO were prepared, and 1.0 μL /well of this serial dilution were transferred […]
as §6, §7, §8, §9
2.8. […]

Sequence of HDAC4 (P56524 627-1084 limits assumed): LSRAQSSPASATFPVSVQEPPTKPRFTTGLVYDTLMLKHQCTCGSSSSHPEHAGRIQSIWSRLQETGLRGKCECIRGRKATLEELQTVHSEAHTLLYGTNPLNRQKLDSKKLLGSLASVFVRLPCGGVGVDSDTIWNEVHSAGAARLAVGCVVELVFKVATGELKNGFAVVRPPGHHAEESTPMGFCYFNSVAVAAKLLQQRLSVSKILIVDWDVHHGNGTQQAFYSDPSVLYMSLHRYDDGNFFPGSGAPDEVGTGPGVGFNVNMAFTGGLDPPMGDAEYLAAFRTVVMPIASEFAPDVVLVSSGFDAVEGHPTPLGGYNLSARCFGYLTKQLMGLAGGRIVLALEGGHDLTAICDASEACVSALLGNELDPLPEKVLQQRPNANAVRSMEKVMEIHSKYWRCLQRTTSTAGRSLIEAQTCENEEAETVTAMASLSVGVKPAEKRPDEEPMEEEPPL
Sequence of HDAC2 (Q92769 whole entry): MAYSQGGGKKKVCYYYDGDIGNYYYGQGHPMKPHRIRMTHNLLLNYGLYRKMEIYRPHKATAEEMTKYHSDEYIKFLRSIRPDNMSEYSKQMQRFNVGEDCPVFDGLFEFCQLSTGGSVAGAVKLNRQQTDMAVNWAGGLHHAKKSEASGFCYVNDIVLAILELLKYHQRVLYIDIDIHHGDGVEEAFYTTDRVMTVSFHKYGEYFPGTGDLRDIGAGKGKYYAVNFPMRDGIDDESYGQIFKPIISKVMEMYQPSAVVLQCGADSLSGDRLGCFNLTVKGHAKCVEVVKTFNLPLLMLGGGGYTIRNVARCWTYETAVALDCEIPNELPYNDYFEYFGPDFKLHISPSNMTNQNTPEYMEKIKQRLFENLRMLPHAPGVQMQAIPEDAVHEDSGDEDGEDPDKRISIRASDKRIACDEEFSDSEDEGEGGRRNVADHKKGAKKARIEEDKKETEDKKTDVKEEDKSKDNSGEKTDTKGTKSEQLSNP

Row | SMILES | IC50 (HDAC6) [µM] | IC50 (HDAC2) [µM] | IC50 (HDAC4) [µM]
1 | O=C(CCCCCCNC(=O)c1ccc(N(C(=O)CCl)C(C(=O)NCc2ccccc2)c2ccc(Cl)c(Cl)c2)cc1)NO (stereo not drawn) [Compound 2] | 0.007 ± 0.001 | 0.298 ± 0.011 | 3.26 ± 0.08
2 | O=C(CCCCCCNC(=O)c1ccc(NC(=O)CCCCCCCCCCCN(C(=O)CCl)C(C(=O)NCc2ccccc2)c2ccc(Cl)c(Cl)c2)cc1)NO (stereo not drawn) [Compound 1j] | 0.053 ± 0.001 | 2.15 ± 0.11 | 12.4 ± 1.5

Source: paper PMC12091851, “Replacing a Cereblon Ligand by a DDB1 and CUL4 Associated Factor 11 (DCAF11) Recruiter Converts a Selective Histone Deacetylase 6 PROTAC into a Pan‐Degrader” (Chemmedchem, 2025)
